# Results: US11208412B2 (DAEGU-GYEONGBUK MEDICAL INNOVATION FOUNDATION, priority 2017, dated 2021)
# Target: T1, recombinant LRRK2 kinase (Homo sapiens, UniProt Q5S007)
# T1 construct: purchased Signal Chem, Richmond, BC, Canada
# Assay: LRRK2 kinase inhibition (Kinase-Glo luminescence)
# Type: biochemical
# Details: IC50 grade; 25 μmol/L ATP, LRRKtide, 30° C. 2 hours; read-out: Enzyme activity LRRK2
# Procedure: Upon completion of the reaction, an equal amount of Kinase-Glo (Promega, Madison, Wis.) solution was added thereto, followed by reaction for 40 minutes. A detection solution was added thereto, followed by further reaction at room temperature for 30 minutes. Then, IC50 of kinase was calculated by measuring the amount of luciferase using a microplate ELISA reader (Bio-Tek).
# T1 sequence (Q5S007 whole entry): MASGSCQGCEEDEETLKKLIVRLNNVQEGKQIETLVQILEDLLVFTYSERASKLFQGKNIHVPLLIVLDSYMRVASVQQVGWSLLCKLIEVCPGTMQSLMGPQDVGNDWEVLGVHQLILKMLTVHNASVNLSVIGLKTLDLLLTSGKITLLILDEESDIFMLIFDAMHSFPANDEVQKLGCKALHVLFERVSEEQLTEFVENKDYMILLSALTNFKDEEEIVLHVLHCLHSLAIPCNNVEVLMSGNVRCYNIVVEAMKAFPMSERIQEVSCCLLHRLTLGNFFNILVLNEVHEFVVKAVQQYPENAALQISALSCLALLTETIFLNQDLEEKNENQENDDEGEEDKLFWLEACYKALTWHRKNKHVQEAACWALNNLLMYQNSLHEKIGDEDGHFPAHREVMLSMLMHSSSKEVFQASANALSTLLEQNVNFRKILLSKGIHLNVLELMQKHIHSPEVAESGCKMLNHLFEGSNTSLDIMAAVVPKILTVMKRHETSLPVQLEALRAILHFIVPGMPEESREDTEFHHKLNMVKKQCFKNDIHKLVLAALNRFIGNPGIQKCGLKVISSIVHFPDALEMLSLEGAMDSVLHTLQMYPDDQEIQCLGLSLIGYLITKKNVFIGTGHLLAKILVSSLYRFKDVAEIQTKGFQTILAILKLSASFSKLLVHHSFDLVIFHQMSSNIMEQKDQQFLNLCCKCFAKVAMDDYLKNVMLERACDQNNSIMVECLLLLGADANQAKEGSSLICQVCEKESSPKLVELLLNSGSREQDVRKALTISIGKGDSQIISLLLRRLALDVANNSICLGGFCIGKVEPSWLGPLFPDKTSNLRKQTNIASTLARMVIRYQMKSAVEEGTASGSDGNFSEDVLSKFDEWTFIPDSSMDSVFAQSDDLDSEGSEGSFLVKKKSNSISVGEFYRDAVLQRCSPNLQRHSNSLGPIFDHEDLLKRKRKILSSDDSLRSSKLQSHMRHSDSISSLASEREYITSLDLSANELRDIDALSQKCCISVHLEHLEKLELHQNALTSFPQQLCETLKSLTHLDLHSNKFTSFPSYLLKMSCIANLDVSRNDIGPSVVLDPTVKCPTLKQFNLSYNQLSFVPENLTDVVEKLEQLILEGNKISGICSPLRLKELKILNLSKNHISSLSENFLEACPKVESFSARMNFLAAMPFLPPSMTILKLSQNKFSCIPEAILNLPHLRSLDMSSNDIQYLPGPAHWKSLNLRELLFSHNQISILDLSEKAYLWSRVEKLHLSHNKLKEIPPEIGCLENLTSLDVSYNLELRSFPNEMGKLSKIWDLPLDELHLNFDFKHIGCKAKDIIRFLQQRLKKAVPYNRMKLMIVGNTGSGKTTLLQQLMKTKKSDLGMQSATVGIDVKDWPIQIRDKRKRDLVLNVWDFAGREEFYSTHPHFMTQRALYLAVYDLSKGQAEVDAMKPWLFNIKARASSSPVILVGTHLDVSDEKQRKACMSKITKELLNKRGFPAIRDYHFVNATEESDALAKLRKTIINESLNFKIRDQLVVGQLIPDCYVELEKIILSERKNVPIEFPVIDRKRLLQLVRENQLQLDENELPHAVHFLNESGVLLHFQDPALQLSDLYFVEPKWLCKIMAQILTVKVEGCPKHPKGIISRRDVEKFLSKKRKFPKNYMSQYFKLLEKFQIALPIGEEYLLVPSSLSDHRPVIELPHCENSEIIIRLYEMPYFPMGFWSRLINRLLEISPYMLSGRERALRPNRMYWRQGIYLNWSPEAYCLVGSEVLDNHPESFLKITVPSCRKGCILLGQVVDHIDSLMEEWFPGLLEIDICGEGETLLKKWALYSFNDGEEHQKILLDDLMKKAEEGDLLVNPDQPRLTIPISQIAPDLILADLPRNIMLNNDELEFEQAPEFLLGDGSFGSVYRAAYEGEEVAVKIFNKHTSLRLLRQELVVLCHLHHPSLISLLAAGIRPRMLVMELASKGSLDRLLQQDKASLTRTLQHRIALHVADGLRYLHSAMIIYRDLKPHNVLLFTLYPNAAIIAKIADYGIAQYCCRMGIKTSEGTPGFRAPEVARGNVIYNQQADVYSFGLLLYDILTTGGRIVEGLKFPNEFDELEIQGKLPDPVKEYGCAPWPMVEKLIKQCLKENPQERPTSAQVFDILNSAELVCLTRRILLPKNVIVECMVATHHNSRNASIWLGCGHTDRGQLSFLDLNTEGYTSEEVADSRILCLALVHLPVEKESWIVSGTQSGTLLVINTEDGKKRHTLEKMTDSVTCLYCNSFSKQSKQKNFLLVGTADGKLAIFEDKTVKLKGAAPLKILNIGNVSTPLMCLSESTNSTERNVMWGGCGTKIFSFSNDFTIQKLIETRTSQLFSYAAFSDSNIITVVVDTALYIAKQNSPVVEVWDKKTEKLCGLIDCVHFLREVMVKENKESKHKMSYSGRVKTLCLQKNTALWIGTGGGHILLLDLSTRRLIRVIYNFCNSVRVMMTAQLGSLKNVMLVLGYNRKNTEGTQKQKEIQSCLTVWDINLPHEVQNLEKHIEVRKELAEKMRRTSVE
row,Structure (SMILES),IC50
1,CCNc1nc(Nc2ccc(C(=O)N3C[C@@H](C)O[C@@H](C)C3)cc2OC)nc2[nH]cc(C(F)(F)F)c12 [Example 109],> 100 nM
2,"CCNc1nc(Nc2ccc(C(=O)N3CCC(F)(F)CC3)cc2OC)nc2[nH]cc(C(F)(F)F)c12 [Example 110, (4,4-difluoropiperidine-1-yl)(4-((4-(ethylamino)-5-(trifluoromethyl)-7H-pyrrolo[2,3-d]pyrimidine-2-yl)amino)-3-methoxyphenyl)methanone]",> 100 nM
3,"COc1cc(C(=O)N2CCOCC2)ccc1Nc1nc(OC2CCOC2)c2c(C(F)(F)F)c[nH]c2n1 (stereo not drawn) [Example 124, (3-methoxy-4-((4-((tetrahydrofuran-3-yl)oxy)-5-(trifluoromethyl)-7H-pyrrolo[2,3-d]pyrimidine-2-yl)amino)phenyl)(morpholino)methanone]",10 to 100 nM
4,F[C@H]1CN(C2COC2)CC[C@@H]1n1ncc(Nc2nc(OC3CCOC3)c3c(C(F)(F)F)c[nH]c3n2)c1Cl (stereo partly drawn) [Example 127],10 to 100 nM
5,"CCNc1nc(Nc2cc3c(cc2Cl)C(=O)N(C)C3)nc2[nH]cc(C#N)c12 [Example 128, 2-((6-chloro-2-methyl-1-oxoisoindol-5-yl)amino)-4-(ethylamino)-7H-pyrrolo[2,3-d]pyrimidine-5-carbonitrile]",> 100 nM
6,"CCNc1nc(Nc2cc3c(cc2OC)N(C)C(=O)C(C)(C)O3)nc2[nH]cc(C#N)c12 [Example 131, 4-(ethylamino)-2-((6-methoxy-2,2,4-trimethyl-3-oxo-3,4-dihydro-2H-benzo[b][1,4]oxazine-7-yl)amino)-7H-pyrrolo[2,3-d]pyrimidine-5-carbonitrile]",10 to 100 nM
7,"CCNc1nc(Nc2sc(C(C)(C)C#N)nc2C)nc2[nH]cc(C#N)c12 [Example 132, 2-((2-(2-cyanopropane-2-yl)-4-methylthiazole-5-yl)amino)-4-(ethylamino)-7H-pyrrolo[2,3-d]pyrimidine-5-carbonitrile]",10 to 100 nM
8,"CCNc1nc(Nc2cc3c(cc2OC)CN(C)C3=O)nc2[nH]cc(C(F)(F)F)c12 [Example 134, 6-((4-(ethylamino)-5-(trifluoromethyl)-7H-pyrrolo[2,3-d]pyrimidine-2-yl)amino)-5-methoxy-2-methylisoindolin-1-one]",> 100 nM
9,"CCNc1nc(Nc2cc3c(cc2Cl)C(=O)N(C)C3)nc2[nH]cc(C(F)(F)F)c12 [Example 135, 6-chloro-5-((4-(ethylamino)-5-(trifluoromethyl)-7H-pyrrolo[2,3-d]pyrimidine-2-yl)amino)-2-methyl isoindolin-1-one]",> 100 nM
10,"CCNc1nc(Nc2ccc3c(c2)CN(C)C3=O)nc2[nH]cc(C(F)(F)F)c12 [Example 136, 5-((4-(ethylamino)-5-(trifluoromethyl)-7H-pyrrolo[2,3-d]pyrimidine-2-yl)amino)-2-methylisoindolin-1-one]",10 to 100 nM
11,"CCNc1nc(Nc2cc3c(cc2OC)N(C)C(=O)C(C)(C)O3)nc2[nH]cc(C(F)(F)F)c12 [Example 137, 7-((4-(ethylamino)-5-(trifluoromethyl)-7H-pyrrolo[2,3-d]pyrimidine-2-yl)amino)-6-methoxy-2,2,4-trimethyl-2H-benzo[1,4]oxazine-3(4H)-one]",> 100 nM

# Results, then the compound that gave them:
row,IC50,Structure (SMILES)
1,< 10 nM,"CCNc1nc(Nc2cn(C(C)(C)C#N)nc2C)nc2[nH]cc(C(F)(F)F)c12 [Example 103, 2-(4-((4-(ethylamino)-5-(trifluoromethyl)-7H-pyrrolo[2,3-d]pyrimidine-2-yl)amino)-3-methyl-1H-pyrazole-1-yl)-2-methylpropanenitrile]"
2,10 to 100 nM,"CCNc1nc(Nc2ccc(C(=O)N3CCOCC3)cc2OC)nc2[nH]cc(C(F)(F)F)c12 [Example 105, (4-((4-(ethylamino)-5-(trifluoromethyl)-7H-pyrrolo[2,3-d]pyrimidine-2-yl)amino)-3-methoxyphenyl)(morpholino)methanone]"
3,< 10 nM,CCNc1nc(Nc2ccc(C(=O)N3CCC(N4CCN(C)CC4)CC3)cc2OC)nc2[nH]cc(C(F)(F)F)c12 [Example 106]
4,< 10 nM,"CCNc1nc(Nc2ccc(C(=O)N3CCN(C)CC3)cc2OC)nc2[nH]cc(C(F)(F)F)c12 [Example 107, (4-((4-(ethylamino)-5-(trifluoromethyl)-7H-pyrrolo[2,3-d]pyrimidine-2-yl)amino)-3-methoxyphenyl)(4-methylpiperazine-1-yl)methanone]"
5,10 to 100 nM,"CCNc1nc(Nc2ccc(C(=O)N3CCO[C@H](C)C3)cc2OC)nc2[nH]cc(C(F)(F)F)c12 [Example 108, (R)-(4-((4-(ethylamino)-5-(trifluoromethyl)-7H-pyrrolo[2,3-d]pyrimidine-2-yl)amino)-3-methoxyphenyl)(2-methylmorpholino)methanone]"
6,10 to 100 nM,"CNc1nc(Nc2ccc(C(=O)N3CCOCC3)cc2OC)nc2[nH]cc(C(F)(F)F)c12 [Example 112, (3-methoxy-4-((4-(methylamino)-5-(trifluoromethyl)-7H-pyrrolo[2,3-d]pyrimidine-2-yl)amino)phenyl)(morpholino)methanone]"
7,10 to 100 nM,"F[C@H]1CN(C2COC2)CC[C@@H]1n1ncc(Nc2nc(NC3CC3)c3c(C(F)(F)F)c[nH]c3n2)c1Cl [Example 117, N^2-(5-chloro-1-((3S,4S)-3-fluoro-1-(oxetane-3-yl)piperidine-4-yl)-1H-pyrazole-4-yl)-N^4-cyclopropyl-5-(trifluoromethyl)-7H-pyrrolo[2,3-d]pyrimidine-2,4-diamine]"
8,< 10 nM,"COc1cc(C(=O)N2CCOCC2)ccc1Nc1nc(NC2CC2)c2c(C(F)(F)F)c[nH]c2n1 [Example 118, (4-((4-(cyclopropylamino)-5-(trifluoromethyl)-7H-pyrrolo[2,3-d]pyrimidine-2-yl)amino)-3-methoxyphenyl)(morpholino)methanone]"
9,< 10 nM,"CCNc1nc(Nc2cc3c(cc2OC)C(=O)N(C)C3)nc2[nH]cc(C#N)c12 [Example 130, 4-(ethylamino)-2-((6-methoxy-2-methyl-1-oxoisoindol-5-yl)amino)-7H-pyrrolo[2,3-d]pyrimidine-5-carbonitrile]"
10,< 10 nM,"CCNc1nc(Nc2cc3c(cc2OC)C(=O)N(C)C3)nc2[nH]cc(C(F)(F)F)c12 [Example 133, 5-((4-(ethylamino)-5-(trifluoromethyl)-7H-pyrrolo[2,3-d]pyrimidine-2-yl)amino)-6-methoxy-2-methylisoindolin-1-one]"
